Test results published in BigSolDB 2.1.

| Compound | solubility (mole fraction) (in n-hexane, 293.15 K) | solubility (mole fraction) (in n-hexane, 298.15 K) | solubility (mole fraction) (in n-hexane, 303.15 K) | solubility (mole fraction) (in n-hexane, 308.15 K) | solubility (mole fraction) (in n-hexane, 313.15 K) | solubility (mole fraction) (in n-octanol, 293.15 K) | solubility (mole fraction) (in n-octanol, 298.15 K) | solubility (mole fraction) (in n-octanol, 303.15 K) | solubility (mole fraction) (in n-octanol, 308.15 K) | solubility (mole fraction) (in n-octanol, 313.15 K) |
| --- | --- | --- | --- | --- | --- | --- | --- | --- | --- | --- |
| Br.c1ccc(NC2=NCCC3(CCCCC3)[Se]2)cc1 | 4.94e-06 | 5.94e-06 | 7.1e-06 | 8.46e-06 | 9.98e-06 | 0.0186 | 0.0229 | 0.0278 | 0.0329 | 0.0385 |
| Br.Fc1ccc(NC2=NCCC3(CCCCC3)[Se]2)cc1 | 1.27e-06 | 1.59e-06 | 1.9e-06 | 2.35e-06 | 2.89e-06 | 0.003 | 0.0036 | 0.0042 | 0.0048 | 0.0055 |
| Br.CC(C)c1ccc(NC2=NCCC3(CCCCC3)[Se]2)cc1 | 4.69e-06 | 5.82e-06 | 7.39e-06 | 8.84e-06 | 1.11e-05 | 0.0484 | 0.0551 | 0.0647 | 0.0728 | 0.0831 |
